≈ marks a conversion by molar mass, not a printed value. Like-named read-outs stand apart in the source and are kept apart here.
Columns and labels:
Assay type in all cases: cell-based
E. coli A20107 = experiment: MIC by Steers agar-dilution method on Mueller-Hinton medium; settings: Escherichia coli
Description: (§1) Illustrated below is a table showing the minimal inhibitory concentrations (MIC's) of butirosin A, 4'-deoxybutirosin A and compound 11 (BB-K186) against a variety of gram-positive and gram-negativebacteria as obtained by the Steers agar-dilution method on Mueller-Hinton medium.

E. coli A20732 = experiment: as above; settings: Escherichia coli
Description: as §1

E. coli A20895 = experiment: as above; settings: Escherichia coli
Description: as §1

E. coli JR35/C600 = experiment: as above; settings: Escherichia coli
Description: as §1

E. coli JR66/W677 = experiment: as above; settings: Escherichia coli
Description: as §1

E. coli ML1630 = experiment: as above; settings: Escherichia coli
Description: as §1

E. coli NIHJ = experiment: as above; settings: Escherichia coli
Description: as §1

E. coli NR79/W677 = experiment: as above; settings: Escherichia coli
Description: as §1

E. coli PO1495 = experiment: as above; settings: Escherichia coli
Description: as §1

E. coli R5 = experiment: as above; settings: Escherichia coli
Description: as §1

Ent. cloacae A20364 = experiment: as above; settings: Enterobacter cloacae
Description: as §1

Ent. cloacae A21006 = experiment: as above; settings: Enterobacter cloacae
Description: as §1

K. pneumoniae 22-3038 = experiment: as above; settings: Klebsiella pneumoniae, 223038
Description: as §1

K. pneumoniae D11 = experiment: as above; settings: Klebsiella pneumoniae
Description: as §1

Pr. mirabilis A9554 = experiment: as above; settings: Proteus mirabilis
Description: as §1

Pr. morganii A20031 = experiment: as above; settings: Morganella morganii
Description: as §1

Pr. vulgaris A9436 = experiment: as above; settings: Proteus vulgaris
Description: as §1

Prov. stuartii A20894 = experiment: as above; settings: Providencia stuartii
Description: as §1

Ps. aeruginosa A20601 = experiment: as above; settings: Pseudomonas aeruginosa
Description: as §1

Ps. aeruginosa A20635 = experiment: as above; settings: Pseudomonas aeruginosa
Description: as §1

Ps. aeruginosa A20896 = experiment: as above; settings: Pseudomonas aeruginosa
Description: as §1

Ps. aeruginosa A9930 = experiment: as above; settings: Pseudomonas aeruginosa
Description: as §1

Ps. aeruginosa GN-315 = experiment: as above; settings: Pseudomonas aeruginosa, GN315
Description: as §1

Ps. aeruginosa No. 130 = experiment: as above; settings: Pseudomonas aeruginosa
Description: as §1

Pseudomonas sp. A20621 = experiment: as above
Description: as §1

S. aureus A20239 = experiment: as above; settings: Staphylococcus aureus
Description: as §1

S. aureus D133 = experiment: as above; settings: Staphylococcus aureus
Description: as §1

S. aureus D137 = experiment: as above; settings: Staphylococcus aureus
Description: as §1

S. aureus D193 = experiment: as above; settings: Staphylococcus aureus
Description: as §1

S. aureus Smith = experiment: as above; settings: Staphylococcus aureus
Description: as §1

Ser. marcescens A20019 = experiment: as above; settings: Serratia marcescens
Description: as §1

Ser. marcescens A21247 = experiment: as above; settings: Serratia marcescens
Description: as §1

[1] = tested on: a variety of gram-positive and gram-negative bacteria; experiment: Antibacterial activity overall (MIC, Steers agar-dilution method); settings: in words
Description: as §1

Pseudomonas aeruginosa = experiment: Antibacterial activity against Pseudomonas aeruginosa (MIC, Steers agar-dilution method); settings: in words
Description: as §1

## NCC[C@H](O)C(=O)N[C@@H]1C[C@H](N)[C@@H](O[C@H]2O[C@H](CN)[C@@H](O)[C@H](O)[C@H]2N)[C@H](O[C@@H]2O[C@H](CO)[C@H](O)[C@H]2O)[C@H]1O [Bu-1709A1, butirosin A]
E. coli A20107; A20107
  MIC: 50 µg/mL (≈ 90 µM)
E. coli A20732; A20732
  MIC: 1.6 µg/mL (≈ 2.88 µM)
E. coli A20895; A20895
  MIC: 3.1 µg/mL (≈ 5.58 µM)
E. coli JR35/C600
  MIC: 0.8 µg/mL (≈ 1.44 µM)
E. coli JR66/W677
  MIC: 100 µg/mL (≈ 180 µM)
E. coli ML1630; ML1630
  MIC: 3.1 µg/mL (≈ 5.58 µM)
E. coli NIHJ
  MIC: 1.6 µg/mL (≈ 2.88 µM)
E. coli NR79/W677
  MIC: > 100 µg/mL
E. coli PO1495
  MIC: 1.6 µg/mL (≈ 2.88 µM)
E. coli R5; R5
  MIC: 3.1 µg/mL (≈ 5.58 µM)
Ent. cloacae A20364; A20364
  MIC: 1.6 µg/mL (≈ 2.88 µM)
Ent. cloacae A21006; A21006
  MIC: > 100 µg/mL
K. pneumoniae 22-3038
  MIC: > 100 µg/mL
K. pneumoniae D11; D11
  MIC: 0.8 µg/mL (≈ 1.44 µM)
Pr. mirabilis A9554; A9554
  MIC: 1.6 µg/mL (≈ 2.88 µM)
Pr. morganii A20031; A20031
  MIC: 1.6 µg/mL (≈ 2.88 µM)
Pr. vulgaris A9436; A9436
  MIC: 0.4 µg/mL (≈ 0.72 µM)
Prov. stuartii A20894; A20894
  MIC: > 100 µg/mL
Ps. aeruginosa A20601; A20601
  MIC: 50 µg/mL (≈ 90 µM)
Ps. aeruginosa A20635; A20635
  MIC: > 100 µg/mL
Ps. aeruginosa A20896; A20896
  MIC: > 100 µg/mL
Ps. aeruginosa A9930; A9930
  MIC: 6.3 µg/mL (≈ 11.3 µM)
Ps. aeruginosa GN-315
  MIC: > 100 µg/mL
Ps. aeruginosa No. 130; NO.130
  MIC: 25 µg/mL (≈ 45 µM)
Pseudomonas sp. A20621; Pseudomonas, SP.A20621
  MIC: 100 µg/mL (≈ 180 µM)
S. aureus A20239; A20239
  MIC: 25 µg/mL (≈ 45 µM)
S. aureus D133; D133
  MIC: 6.3 µg/mL (≈ 11.3 µM)
S. aureus D137; D137
  MIC: 25 µg/mL (≈ 45 µM)
S. aureus D193; D193
  MIC: 3.1 µg/mL (≈ 5.58 µM)
S. aureus Smith
  MIC: 0.8 µg/mL (≈ 1.44 µM)
Ser. marcescens A20019; A20019
  MIC: 6.3 µg/mL (≈ 11.3 µM)
Ser. marcescens A21247; A21247
  MIC: 6.3 µg/mL (≈ 11.3 µM)

## NCC[C@H](O)C(=O)N[C@@H]1C[C@H](N)[C@@H](O[C@H]2O[C@H](CN)[C@@H](O)C[C@H]2N)[C@H](O[C@@H]2O[C@H](CO)[C@H](O)[C@H]2O)[C@H]1O [Compound 11, 3'-deoxybutirosin A]
E. coli A20107; E. coli A20107, Mueller-Hinton medium, read-out: MIC
  MIC: 3.1 µg/mL (≈ 5.75 µM)
E. coli A20732; E. coli A20732, Mueller-Hinton medium, read-out: MIC
  MIC: 1.6 µg/mL (≈ 2.97 µM)
E. coli A20895; E. coli A20895, Mueller-Hinton medium, read-out: MIC
  MIC: 3.1 µg/mL (≈ 5.75 µM)
E. coli JR35/C600
  MIC: 0.8 µg/mL (≈ 1.48 µM)
E. coli JR66/W677
  MIC: 3.1 µg/mL (≈ 5.75 µM)
E. coli ML1630; E. coli ML1630, Mueller-Hinton medium, read-out: MIC
  MIC: 3.1 µg/mL (≈ 5.75 µM)
E. coli NIHJ; E. coli NIHJ, Mueller-Hinton medium, read-out: MIC
  MIC: 1.6 µg/mL (≈ 2.97 µM)
E. coli NR79/W677
  MIC: > 100 µg/mL
E. coli PO1495
  MIC: 1.6 µg/mL (≈ 2.97 µM)
E. coli R5; E. coli R5, Mueller-Hinton medium, read-out: MIC
  MIC: 3.1 µg/mL (≈ 5.75 µM)
Ent. cloacae A20364; Ent. cloacae A20364, Mueller-Hinton medium, read-out: MIC
  MIC: 1.6 µg/mL (≈ 2.97 µM)
Ent. cloacae A21006; Ent. cloacae A21006, Mueller-Hinton medium, read-out: MIC
  MIC: 3.1 µg/mL (≈ 5.75 µM)
K. pneumoniae 22-3038; K. pneumoniae 22-3038, Mueller-Hinton medium, read-out: MIC
  MIC: 3.1 µg/mL (≈ 5.75 µM)
K. pneumoniae D11; K. pneumoniae D11, Mueller-Hinton medium, read-out: MIC
  MIC: 0.8 µg/mL (≈ 1.48 µM)
Pr. mirabilis A9554; Pr. mirabilis A9554, Mueller-Hinton medium, read-out: MIC
  MIC: 1.6 µg/mL (≈ 2.97 µM)
Pr. morganii A20031; Pr. morganii A20031, Mueller-Hinton medium, read-out: MIC
  MIC: 3.1 µg/mL (≈ 5.75 µM)
Pr. vulgaris A9436; Pr. vulgaris A9436, Mueller-Hinton medium, read-out: MIC
  MIC: 0.4 µg/mL (≈ 0.741 µM)
Prov. stuartii A20894; Prov. stuartii A20894, Mueller-Hinton medium, read-out: MIC
  MIC: 25 µg/mL (≈ 46.3 µM)
Ps. aeruginosa A20601; Ps. aeruginosa A20601, Mueller-Hinton medium, read-out: MIC
  MIC: 12.5 µg/mL (≈ 23.2 µM)
Ps. aeruginosa A20635; Ps. aeruginosa A20635, Mueller-Hinton medium, read-out: MIC
  MIC: 25 µg/mL (≈ 46.3 µM)
Ps. aeruginosa A20896; Ps. aeruginosa A20896, Mueller-Hinton medium, read-out: MIC
  MIC: 50 µg/mL (≈ 92.7 µM)
Ps. aeruginosa A9930; Ps. aeruginosa A9930, Mueller-Hinton medium, read-out: MIC
  MIC: 0.8 µg/mL (≈ 1.48 µM)
Ps. aeruginosa GN-315; Ps. aeruginosa GN-315, Mueller-Hinton medium, read-out: MIC
  MIC: > 100 µg/mL
Ps. aeruginosa No. 130; Ps. aeruginosa No. 130, Mueller-Hinton medium, read-out: MIC
  MIC: 12.5 µg/mL (≈ 23.2 µM)
Pseudomonas sp. A20621; Pseudomonas sp. A20621, Mueller-Hinton medium, read-out: MIC
  MIC: 100 µg/mL (≈ 185 µM)
S. aureus A20239; S. aureus A20239, Mueller-Hinton medium, read-out: MIC
  MIC: 3.1 µg/mL (≈ 5.75 µM)
S. aureus D133; S. aureus D133, Mueller-Hinton medium, read-out: MIC
  MIC: 3.1 µg/mL (≈ 5.75 µM)
S. aureus D137; S. aureus D137, Mueller-Hinton medium, read-out: MIC
  MIC: 12.5 µg/mL (≈ 23.2 µM)
S. aureus D193; S. aureus D193, Mueller-Hinton medium, read-out: MIC
  MIC: 1.6 µg/mL (≈ 2.97 µM)
S. aureus Smith; S. aureus Smith, Mueller-Hinton medium, read-out: MIC
  MIC: 0.8 µg/mL (≈ 1.48 µM)
Ser. marcescens A20019; Ser. marcescens A20019, Mueller-Hinton medium, read-out: MIC
  MIC: 6.3 µg/mL (≈ 11.7 µM)
Ser. marcescens A21247; Ser. marcescens A21247, Mueller-Hinton medium, read-out: MIC
  MIC: 3.1 µg/mL (≈ 5.75 µM)
[1]
  antibacterial activity compared with butirosin A and 4'-deoxybutirosin A: good antibacterial activity that in many respects is superior to butirosin A itself and in some respects superior to 4'-deoxybutirosin A
[1]; listed as compound 11
  antibacterial activity compared with butirosin A and 4'-deoxybutirosin A: equal to or superior in most respects to butirosin A and 4'-deoxybutirosin A
Pseudomonas aeruginosa
  activity against Pseudomonas aeruginosa: particularly improved in its activity against Pseudomonas aeruginosa
